Measured values reported in US20230383292A1, “TARGETING XIST AND RNA METHYLATION FOR X REACTIVATION THERAPY” (The General Hospital Corporation, priority 2020, published 2023).

Test system: human XIST transcript
Assay: XIST knock down by XIST ASOs (Table 1)
Assay type: cell-based
Design: ASO conc at max KD: unit not given here
Settings: for % Max KD: XIST knock down, cells treated for 72 hrs with XIST ASO; for ASO conc at max KD: concentration of XIST ASO giving max KD, 72 hrs
Text: The methods include administering an inhibitor of an XIST RNA itself, e.g., an inhibitory nucleic acid targeting XIST RNA. Although in typical usage XIST refers to the human sequence and XIST to the mouse sequence, in the present application the terms are used interchangeably. The human XIST sequence is available in the ensemble database at ENSG00000229807; it is present on Chromosome X at 73,820,651-73,852,753 reverse strand (Human GRCh38.p2). The sequences of exons 1-6 are shown in SEQ ID NOs:73-79 (see FIG. 2); XIST exons correspond to 601-11972 (exon 1); 15851-15914 (exon 2); 19593-20116 (exon 3); 21957-21984 (exon 4); 22080-22288 (exon 5); and 23887-33304 (exon 6). […] The inhibitory nucleic acid targeting XIST RNA can be any inhibitory nucleic acid as described herein, and can include modifications described herein or known in the art. In some embodiments, the inhibitory nucleic acid is an antisense oligonucleotide (ASO) that targets a sequence in XIST RNA, e.g., a sequence within an XIST exon as shown in SEQ ID NO:1-45 or within the RNA sequence as set forth in NR_001564.2, preferably wherein the ASO comprises a sequence as shown in Table 1. In some embodiments, the inhibitory nucleic includes at least one locked nucleotide, e.g., is a locked nucleic acid (LNA). Table 1 provides a list of ASOs that have more than 80% XIST knock down when cells are treated for 72 hrs with the below XIST ASOs.

## ASO 6T: XIST antisense oligonucleotide CCCACAGAAAGTAATCACCA, SEQ ID NO 31 (listed as DNA, chemistry not given here)
  % Max KD: 89%
  ASO conc at max KD: 20

## ASO 6B: XIST antisense oligonucleotide AGAAGTCTGGCACATCTGTG, SEQ ID NO 11 (listed as DNA, chemistry not given here)
  % Max KD: 98%
  ASO conc at max KD: 100

## ASO 3P: XIST antisense oligonucleotide TAGATTAGCTGGAGCTTGGC, SEQ ID NO 4 (listed as DNA, chemistry not given here)
  % Max KD: 99%
  ASO conc at max KD: 100

## ASO 1X: XIST antisense oligonucleotide ACTCAGCAGCAATGGCAAAG, SEQ ID NO 29 (listed as DNA, chemistry not given here)
  % Max KD: 89%
  ASO conc at max KD: 100

## ASO 1F: XIST antisense oligonucleotide TTTAGCTCATGCAATGCACA, SEQ ID NO 9 (listed as DNA, chemistry not given here)
  % Max KD: 98%
  ASO conc at max KD: 20

## ASO 6A: XIST antisense oligonucleotide TATGGCCCACAGTCTAAAGT, SEQ ID NO 1 (listed as DNA, chemistry not given here)
  % Max KD: 99.3%
  ASO conc at max KD: 20

## ASO 6D: XIST antisense oligonucleotide TCAAGACTGGCCCAGGCATA, SEQ ID NO 17 (listed as DNA, chemistry not given here)
  % Max KD: 96%
  ASO conc at max KD: 20

## ASO 1W: XIST antisense oligonucleotide CTTAAGTAGTAGGTACTTCC, SEQ ID NO 3 (listed as DNA, chemistry not given here)
  % Max KD: 99%
  ASO conc at max KD: 20

## ASO 6R: XIST antisense oligonucleotide GGCCTTGTGTCACAAGTCTC, SEQ ID NO 6 (listed as DNA, chemistry not given here)
  % Max KD: 99%
  ASO conc at max KD: 100

## ASO 4B: XIST antisense oligonucleotide CCAGGAAAGTATCTTGACAG, SEQ ID NO 32 (listed as DNA, chemistry not given here)
  % Max KD: 88%
  ASO conc at max KD: 100

## ASO 6U: XIST antisense oligonucleotide CTTTGTCCCAGGCACAGTCA, SEQ ID NO 13 (listed as DNA, chemistry not given here)
  % Max KD: 97%
  ASO conc at max KD: 20

## ASO 1B: XIST antisense oligonucleotide GCCTGCCATATTGTCCCTGC, SEQ ID NO 14 (listed as DNA, chemistry not given here)
  % Max KD: 96%
  ASO conc at max KD: 20

## ASO 5P: XIST antisense oligonucleotide GTTCAAATTTCTTGGACCTG, SEQ ID NO 34 (listed as DNA, chemistry not given here)
  % Max KD: 88%
  ASO conc at max KD: 20

## ASO 1T: XIST antisense oligonucleotide AGGATGAACCATGTGGTGAT, SEQ ID NO 24 (listed as DNA, chemistry not given here)
  % Max KD: 93%
  ASO conc at max KD: 20

## ASO 1U: XIST antisense oligonucleotide CTTACAACTGTGCACCTTGA, SEQ ID NO 15 (listed as DNA, chemistry not given here)
  % Max KD: 96%
  ASO conc at max KD: 100

## ASO 1S: XIST antisense oligonucleotide CAGAAACCCAAGTCTAATTG, SEQ ID NO 23 (listed as DNA, chemistry not given here)
  % Max KD: 94%
  ASO conc at max KD: 20

## ASO 4P: XIST antisense oligonucleotide GTTGTTGCCCAGTGGTAGTG, SEQ ID NO 33 (listed as DNA, chemistry not given here)
  % Max KD: 88%
  ASO conc at max KD: 100

## ASO 1R: XIST antisense oligonucleotide CTGTGACTACAGAAGCAATG, SEQ ID NO 22 (listed as DNA, chemistry not given here)
  % Max KD: 94%
  ASO conc at max KD: 100

## ASO 4A: XIST antisense oligonucleotide GGTTGTTGCCCAGTGGTAGT, SEQ ID NO 35 (listed as DNA, chemistry not given here)
  % Max KD: 84%
  ASO conc at max KD: 20

## ASO 1G: XIST antisense oligonucleotide CTGAGATCACAGACAAATGG, SEQ ID NO 19 (listed as DNA, chemistry not given here)
  % Max KD: 95%
  ASO conc at max KD: 20

## ASO 1E: XIST antisense oligonucleotide GAATTCCTCTTCTGCCACCT, SEQ ID NO 28 (listed as DNA, chemistry not given here)
  % Max KD: 91%
  ASO conc at max KD: 20

## ASO 5B: XIST antisense oligonucleotide TTTCTTGGACCTGCTGAAGA, SEQ ID NO 20 (listed as DNA, chemistry not given here)
  % Max KD: 95%
  ASO conc at max KD: 20

## ASO 5Q: XIST antisense oligonucleotide CAGATAGGAACAATGAAGAG, SEQ ID NO 30 (listed as DNA, chemistry not given here)
  % Max KD: 89%
  ASO conc at max KD: 100

## ASO 1C: XIST antisense oligonucleotide TGAGGCACCAATACAGAGGA, SEQ ID NO 18 (listed as DNA, chemistry not given here)
  % Max KD: 95%
  ASO conc at max KD: 20

## ASO 6Q: XIST antisense oligonucleotide TCAGAAGTCTGGCACATCTG, SEQ ID NO 5 (listed as DNA, chemistry not given here)
  % Max KD: 99%
  ASO conc at max KD: 100

## ASO 1D: XIST antisense oligonucleotide TCAGACTGTATGACTGACAT, SEQ ID NO 8 (listed as DNA, chemistry not given here)
  % Max KD: 98%
  ASO conc at max KD: 20

## ASO 1A: XIST antisense oligonucleotide TAGTTAGCACTCCTGCTGCT, SEQ ID NO 7 (listed as DNA, chemistry not given here)
  % Max KD: 98%
  ASO conc at max KD: 20

## ASO 6C: XIST antisense oligonucleotide TTGGCCTTGTGTCACAAGTC, SEQ ID NO 12 (listed as DNA, chemistry not given here)
  % Max KD: 97%
  ASO conc at max KD: 20

## ASO 6S: XIST antisense oligonucleotide CTGAGGATTGTTTCTGAAAG, SEQ ID NO 21 (listed as DNA, chemistry not given here)
  % Max KD: 95%
  ASO conc at max KD: 100

## ASO 1P: XIST antisense oligonucleotide TAGCTCATGCAATGCACATG, SEQ ID NO 2 (listed as DNA, chemistry not given here)
  % Max KD: 99%
  ASO conc at max KD: 100

## ASO 6P: XIST antisense oligonucleotide CCAGAGTGGTAGAAGAGATA, SEQ ID NO 27 (listed as DNA, chemistry not given here)
  % Max KD: 92%
  ASO conc at max KD: 20

## ASO 1V: XIST antisense oligonucleotide AGGACCTTATTCACATGGAA, SEQ ID NO 10 (listed as DNA, chemistry not given here)
  % Max KD: 98%
  ASO conc at max KD: 20

## ASO 6I: XIST antisense oligonucleotide GTTCTGCACCTATCAGGCAG, SEQ ID NO 25 (listed as DNA, chemistry not given here)
  % Max KD: 93%
  ASO conc at max KD: 20

## ASO 5A: XIST antisense oligonucleotide CAAATTTCTTGGACCTGCTG, SEQ ID NO 16 (listed as DNA, chemistry not given here)
  % Max KD: 96%
  ASO conc at max KD: 20

## ASO 6E: XIST antisense oligonucleotide AGTTCAGGCTGTCCCCTTGG, SEQ ID NO 26 (LNA gapmer with DNA gap, wing lengths and linkages not given here)
  % Max KD: 92%
  ASO conc at max KD: 20
